US11274332B2, “Methods of administering 3,4-diaminopyridine” (SERB SA, priority 2011, dated 2022)

Assay: Bioavailability/bioequivalence study of 3,4-DAP phosphate salt vs free base in healthy subjects (Example A)
Assay type: in vivo, human
Protocol: The primary objectives of the study were to evaluate the clinical tolerance of a single 10 mg dose (equivalent base) oral intake of 3,4-DAP salt in five healthy subjects and to determine the relative bioequivalence of a single 20 mg oral dose of 3,4-DAP administered as a salt or as a free base to 26 healthy subjects. The secondary objectives were to study pharmacokinetic parameters (elimination half and elimination constant), to compare the biological tolerance of both a 20 mg oral intake of 3,4-DAP as a free base and as a salt, and to measure QTcf intervals at expected Cmax.
This was an open and uncontrolled study of the clinical tolerance to a low dose of the phosphate salt. Subjects were hospitalized from 8 am to 4 pm after fasting since midnight the previous night. At 8:30 am, one 10 mg 3,4-DAP phosphate tablet was administered with a glass of water in the presence of a supervising nurse. During their 8-hour stay, heart rate was continuously monitored, blood pressure was measured on eight occasions (including baseline) and three urine samples were taken.
This was a double-blind, randomized 2-way cross-over trial. The two administration periods were separated by a wash-out of at least 3 days and not more than 10 days. At the beginning of each period, subjects were hospitalized at 8 am (while fasting since midnight) for at least 12 hours. At their arrival a urinary sample was taken and avenous catheter was inserted into an antecubital vein. A first blood sample was drawn 15 min before drug intake. At around 8:30 am drug was administered (as the phosphate salt or free base according to randomization) with a glass of water under the supervision of a nurse and subjects remained seated for 15 min. Group A received two 10 mg tablets of 3,4-DAP phosphate. Group B received two 10 mg capsules of 3,4-DAP as a free base.
Two 5 mL blood samples were drawn at the following times after drug administration: 5 min, 10 min, 15 min, 20 min, 30 min, 45 min, 60 min, 75 min, 90 min, 120 min, 240 min, 360 min, 480 min, and 660 min. At each sampling time two 5 mL samples were drawn on […] heparinized tubes. They were immediately centrifuged at room temperature. Serum was then separated and dispatched into three clearly identified aliquots which were frozen at −20° C. […]
12-lead ECGs (50 mm/s, 2 cm/mV) were recorded over 1 minute three times prior to drug intake (HR-RR, QT and QTcf were averaged to determine baseline values) and then at 15, 20, 30, 45, 60, 75, 90, 120, and 240 min post dose. ECG parameters were recorded by using Cardionics™ ECG/VCG software (version 3.3.0). Blood pressure was measured at 120 min post dosing. […]
An HPLC-electrochemical detection system was used to assay 3,4-DAP in serum samples. […] The extracted sample was analyzed by HPLC coupled with coulemetric detection. […]

Nc1ccncc1N [3,4-DAP, 3,4-diaminopyridine]
differences in Cmax, AUC and t1/2 between subjects (between patients): up to 10 fold | Cmax (human, serum, as the phosphate salt, 20 mg oral, read-out: Cmax, range between patients): 13 to 167 ng/mL | half-life (human, serum, phosphate salt or free base, 20 mg oral): < 2.6 h | coefficient of variations for AUCs and Cmax (phosphate salt or free base, 20 mg oral): exceeding 30%
